Test results: the supplement of paper PMC5908809

What was measured:
[1] = system: normal NK cells expanded with K562-aAPC; assay: drug sensitivity score (DSS) (DSS units); higher = more sensitive; extreme values may be limits of the assay; conditions: 72 h; IL-2 2.5 ng/mL
Protocol: (§1)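 Drug sensitivity and resistance testing on K562-aAPC-expanded normal NK cells: 5 concentrations (10-fold steps over a 10,000-fold range), 72 h at 37 °C, viability by CellTiter-Glo normalised to DMSO and benzethonium chloride controls; DSS from the fitted curve.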

DERL-7 (IL-2 2.5 ng/mL) [2] = assay: as above; conditions: 72 h
[3] = system: normal primary NK cells, pool 2 (3 donors) (IL-2 2.5 ng/mL); assay: as above; conditions: 72 h
[4] = system: normal primary NK cells, pool 1 (3 donors), resting (IL-2 0 ng/mL); assay: as above; conditions: 72 h
NKL (IL-2 2.5 ng/mL) [5] = assay: as above; conditions: 72 h
SNK-6 (IL-2 2.5 ng/mL) [6] = assay: as above; conditions: 72 h
KHYG-1 (IL-2 2.5 ng/mL) [7] = assay: as above; conditions: 72 h
IMC-1 (IL-2 20 ng/mL) [8] = assay: as above; conditions: 72 h
NK-92 (IL-2 2.5 ng/mL) [9] = assay: as above; conditions: 72 h
KAI3 (IL-2 2.5 ng/mL) [10] = assay: as above; conditions: 72 h
YT (IL-2 2.5 ng/mL) [11] = assay: as above; conditions: 72 h
[12] = system: normal primary NK cells, pool 3 (3 donors) (IL-2 2.5 ng/mL); assay: as above; conditions: 72 h
[13] = system: normal primary NK cells, pool 1 (3 donors) (IL-2 2.5 ng/mL); assay: as above; conditions: 72 h
NK-YS (IL-2 2.5 ng/mL) [14] = assay: as above; conditions: 72 h
DERL-7 (IL-2 2.5 ng/mL) [15] = assay: percent inhibition of viability; higher = more inhibition; conditions: 72 h
[16] = system: normal primary NK cells, pool 2 (3 donors) (IL-2 2.5 ng/mL); assay: as above; conditions: 72 h
[17] = system: normal primary NK cells, pool 1 (3 donors), resting (IL-2 0 ng/mL); assay: as above; conditions: 72 h
NKL (IL-2 2.5 ng/mL) [18] = assay: as above; conditions: 72 h
SNK-6 (IL-2 2.5 ng/mL) [19] = assay: as above; conditions: 72 h
KHYG-1 (IL-2 2.5 ng/mL) [20] = assay: as above; conditions: 72 h
IMC-1 (IL-2 20 ng/mL) [21] = assay: as above; conditions: 72 h
NK-92 (IL-2 2.5 ng/mL) [22] = assay: as above; conditions: 72 h
KAI3 (IL-2 2.5 ng/mL) [23] = assay: as above; conditions: 72 h
YT (IL-2 2.5 ng/mL) [24] = assay: as above; conditions: 72 h
[25] = system: normal primary NK cells, pool 3 (3 donors) (IL-2 2.5 ng/mL); assay: as above; conditions: 72 h
[26] = system: normal primary NK cells, pool 1 (3 donors) (IL-2 2.5 ng/mL); assay: as above; conditions: 72 h
NK-YS (IL-2 2.5 ng/mL) [27] = assay: as above; conditions: 72 h
[28] = system: normal NK cells expanded with K562-aAPC; assay: as above; conditions: 72 h, IL-2 2.5 ng/mL
Protocol: as §1

O=C(c1ccc(F)c(F)c1Nc1ccc(I)cc1F)N1CC(O)([C@@H]2CCCCN2)C1 [Cobimetinib] (max concentration tested 1000 nM)
Conditions	drug sensitivity score
DERL-7 (IL-2 2.5 ng/mL) [2]	7.96
IMC-1 (IL-2 20 ng/mL) [8]	0
KAI3 (IL-2 2.5 ng/mL) [10]	3.21
KHYG-1 (IL-2 2.5 ng/mL) [7]	6.6
NK-92 (IL-2 2.5 ng/mL) [9]	0
NK-YS (IL-2 2.5 ng/mL) [14]	1.78
NKL (IL-2 2.5 ng/mL) [5]	10.4
SNK-6 (IL-2 2.5 ng/mL) [6]	0
YT (IL-2 2.5 ng/mL) [11]	0.26
[1]	0.83
[3]	1.58
[4]	2.92
[12]	0.02
[13]	5.11

percent inhibition of viability [%]
Conditions	0.1 nM	1 nM	10 nM	100 nM	1000 nM
DERL-7 (IL-2 2.5 ng/mL) [15]	-2.43	3.83	18.1	32.9	46.5
IMC-1 (IL-2 20 ng/mL) [21]	-6.91	-4.02	-2.84	-2.89	11.3
KAI3 (IL-2 2.5 ng/mL) [23]	9.38	9.29	9.13	11.7	32.1
KHYG-1 (IL-2 2.5 ng/mL) [20]	0.28	-3.46	0.44	23.2	61.9
NK-92 (IL-2 2.5 ng/mL) [22]	-10.5	-14.3	-27.4	-34.9	9.96
NK-YS (IL-2 2.5 ng/mL) [27]	-1.72	-3.33	-3.31	6.41	24.2
NKL (IL-2 2.5 ng/mL) [18]	-12.4	-11.4	17.8	45	73.1
SNK-6 (IL-2 2.5 ng/mL) [19]	-10.3	-0.09	-17.7	-8.92	-10.9
YT (IL-2 2.5 ng/mL) [24]	0.33	-2.92	-2.04	-0.43	15.7
[16]	-3.62	-9.92	3.68	12.4	19.9
[17]	7.7	3.18	22	14	16.4
[25]	-9.25	-10.3	-2.76	-1.62	12.1
[26]	-3.52	2.49	17.3	18.4	24
[28]	-7.24	-7.72	-6.49	1.17	21.4

CC(C)C[C@@H](C(=O)N[C@H](C(=O)OC1CCCC1)c1ccccc1)[C@H](O)C(=O)NO [Tosedostat] (max concentration tested 10000 nM)
Conditions	drug sensitivity score
DERL-7 (IL-2 2.5 ng/mL) [2]	18
IMC-1 (IL-2 20 ng/mL) [8]	1.21
KAI3 (IL-2 2.5 ng/mL) [10]	1.15
KHYG-1 (IL-2 2.5 ng/mL) [7]	7.83
NK-92 (IL-2 2.5 ng/mL) [9]	5.36
NK-YS (IL-2 2.5 ng/mL) [14]	8.33
NKL (IL-2 2.5 ng/mL) [5]	6.28
SNK-6 (IL-2 2.5 ng/mL) [6]	0
YT (IL-2 2.5 ng/mL) [11]	6.11
[1]	2.81
[3]	6.04
[4]	15.1
[12]	1.63
[13]	8

percent inhibition of viability [%]
Conditions	1 nM	10 nM	100 nM	1000 nM	10000 nM
DERL-7 (IL-2 2.5 ng/mL) [15]	0.91	28.1	38.8	57.2	60.4
IMC-1 (IL-2 20 ng/mL) [21]	1.56	3.44	2.86	-8.8	34.8
KAI3 (IL-2 2.5 ng/mL) [23]	-9.18	-2.01	1.91	5.58	19.7
KHYG-1 (IL-2 2.5 ng/mL) [20]	-2.21	-0.34	2.84	38.9	56
NK-92 (IL-2 2.5 ng/mL) [22]	-7.95	-5.73	1.42	28.5	39.5
NK-YS (IL-2 2.5 ng/mL) [27]	1.05	7.39	20.1	32.9	43.8
NKL (IL-2 2.5 ng/mL) [18]	2.1	17	15	11.9	77.3
SNK-6 (IL-2 2.5 ng/mL) [19]	15.8	-24.2	-35	-26.7	-18.3
YT (IL-2 2.5 ng/mL) [24]	-4.4	5.94	-1.61	16.7	64.4
[16]	-1.97	-1.61	3.93	27.9	53.1
[17]	-9.12	-11.9	19.5	68.8	83
[25]	-8.47	-19.6	-9.22	2.66	28.9
[26]	0.7	-2.5	14.2	32.4	71.7
[28]	-1.88	6.85	7.57	15.4	28.1

Nc1ncnc2c1nc(N)n2[C@@H]1O[C@H](CO)[C@@H](O)[C@H]1O [8-amino-adenosine] (max concentration tested 50000 nM)
Conditions	drug sensitivity score
DERL-7 (IL-2 2.5 ng/mL) [2]	24.3
IMC-1 (IL-2 20 ng/mL) [8]	20.1
KAI3 (IL-2 2.5 ng/mL) [10]	26.6
KHYG-1 (IL-2 2.5 ng/mL) [7]	21.4
NK-92 (IL-2 2.5 ng/mL) [9]	25
NK-YS (IL-2 2.5 ng/mL) [14]	22
NKL (IL-2 2.5 ng/mL) [5]	25.6
SNK-6 (IL-2 2.5 ng/mL) [6]	32.5
YT (IL-2 2.5 ng/mL) [11]	21.3
[1]	22.2
[3]	9.73
[4]	4.92
[12]	8.22
[13]	8.3

percent inhibition of viability [%]
Conditions	5 nM	50 nM	500 nM	5000 nM	50000 nM
DERL-7 (IL-2 2.5 ng/mL) [15]	-0.37	-2.93	51.5	101	101
IMC-1 (IL-2 20 ng/mL) [21]	-2.9	-0.37	12.2	101	101
KAI3 (IL-2 2.5 ng/mL) [23]	-12.9	-1.89	75.4	104	106
KHYG-1 (IL-2 2.5 ng/mL) [20]	-1.34	-2.24	21.2	105	109
NK-92 (IL-2 2.5 ng/mL) [22]	-19.1	-2.94	59.2	106	109
NK-YS (IL-2 2.5 ng/mL) [27]	-5.77	-1.64	26	102	108
NKL (IL-2 2.5 ng/mL) [18]	-18.8	6.72	63	107	109
SNK-6 (IL-2 2.5 ng/mL) [19]	24.4	39.9	75.8	99	101
YT (IL-2 2.5 ng/mL) [24]	-0.2	1.01	20.2	102	110
[16]	-14.7	-1.95	0.14	36.1	88.7
[17]	-6.09	-20.9	-6.28	5.09	75.2
[25]	-13.3	-8.61	10.2	31	84.2
[26]	2.12	-9.21	1.92	26.5	81.2
[28]	-1.82	3.86	28.5	101	101
